Assay results from patent publication US10954265B2 (Van Andel Research Institute, priority 2016, dated 2021).
Numbering of substitutions follows the chain as printed. Several values for one entry are separate records, joined by “and”; a condition that tells them apart may be missing. Identical values can stand only once.

Assays:
GR [1] = molecular target: T1, GR (Homo sapiens, UniProt P04150); experiment: Determination of induction activity, MMTV-Luc reporter in AD293 cells transfected with pRShGR (Table 3, FIG. 14); details: for RLU / RLU/Renilla: single replicate wells; for activation at 0.01 µM / activation at 1 µM: AD293, 16 h, read-out: % to Dex induction; for fold induction at 0.01 µM / fold induction at 1 µM: AD293, read-out: Steroid Fold Induction; for % to Dex induction: relative to DEX 1000 nM
T1 sequence (P04150 1-777): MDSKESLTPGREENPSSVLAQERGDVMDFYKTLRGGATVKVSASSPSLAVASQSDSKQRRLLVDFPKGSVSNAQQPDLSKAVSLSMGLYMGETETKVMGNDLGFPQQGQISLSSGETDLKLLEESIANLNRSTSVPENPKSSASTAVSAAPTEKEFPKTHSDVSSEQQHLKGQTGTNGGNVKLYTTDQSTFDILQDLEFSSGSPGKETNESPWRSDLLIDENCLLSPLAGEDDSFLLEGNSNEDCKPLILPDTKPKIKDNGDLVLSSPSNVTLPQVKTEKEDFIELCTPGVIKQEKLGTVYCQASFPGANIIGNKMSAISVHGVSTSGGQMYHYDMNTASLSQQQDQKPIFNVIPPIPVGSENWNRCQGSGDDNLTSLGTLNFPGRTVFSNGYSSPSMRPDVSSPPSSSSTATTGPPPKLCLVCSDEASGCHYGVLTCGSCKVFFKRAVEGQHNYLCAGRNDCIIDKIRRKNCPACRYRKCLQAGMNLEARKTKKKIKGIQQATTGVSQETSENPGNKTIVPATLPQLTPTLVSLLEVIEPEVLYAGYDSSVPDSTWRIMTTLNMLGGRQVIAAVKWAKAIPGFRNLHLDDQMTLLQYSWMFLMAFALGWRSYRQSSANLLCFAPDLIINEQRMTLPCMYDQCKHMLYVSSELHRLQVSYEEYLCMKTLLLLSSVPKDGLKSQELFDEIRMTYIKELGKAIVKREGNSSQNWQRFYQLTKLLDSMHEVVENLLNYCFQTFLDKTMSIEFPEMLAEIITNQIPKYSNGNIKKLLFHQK
Experimental: (§1) AD293 cells were split at 20,000/well in 24 well plate one day before transfection. For transactivation, 100 ng pHHLuc (MMTV-Luc) plasmid, 0.1 ng pRShGR together with 5 ng phRGtkRenilla were transfected by X-tremeGENE 9 (Roche) into AD293 cells per well. For transreperssion, 10 ng AP1-Luc, 100 ng pRShGR and 5 ng phRGtkRenilla were transfected into AD293 cells per well. One day after transfection, cells were induced by different treatment (steroids or vehicle) 16 hrs overnight. Cells were harvest by 1× passive lysis buffer (Promega), luciferase activity was assayed by the Dual-Glo Luciferase system (Promega). Data were plotted by Luciferase Value/Renilla Value, as Relative Luciferase Unit (RLU).
AD293 cells were transfected with 0.1 ng pRShGR, 100 ng MMTV-Luc reporter, and 10 ng TK-Renilla internal control per well in a 24-well plate. One day after transfection, cells were induced by candidate compounds at a concentration of 10 nm or 1 um (see FIG. 14). Cells were harvested and luciferase activity was measured by Promega Dual Luciferacse kit.

GR [2] = molecular target: T1, GR; experiment: Potency of candidate compounds in MMTV-luciferase reporter, full dose-response (FIG. 16A); type: cell-based; set-up: expressed in transfected cells; host or cells: AD293; details: doses 0.01 nM to 1000 nM
From the text: To evaluate the potency of candidate compounds in a reporter system, an MMTV-luciferase reporter was used.

[3] = test system: OVA-induced mouse asthma model; experiment: OVA-induced mouse asthma model, lung function (RL) by FlexiVent; type: in vivo
Experimental: A OVA-induced mouse asthma model was used to examine the anti-inflammatory effect of candidate compounds. 7-9 weeks old Balb/c mice were primarily immunized with OVA (ovalbumin). […] Related Lung (RL) function in response to acetylcholine was measured by the forced oscillation techniques with the FlexiVent system (SCIREQ).
To evaluate the effect of candidate compounds in repressing lung inflammation, a OVA-induced mouse asthma model was used (RL: relative lung function).

GR Q642N = molecular target: T2, GR Q642N (Homo sapiens, UniProt P04150, Q642N); experiment: Transactivation on MMTV-Luc in AD293 cells, GR Q642N mutant; type: cell-based; details: compared with wild type, up to saturation concentration
T2 construct: expressed in transfected cells; host or cells: AD293
T2 sequence (P04150 1-777 Q642N): T1 sequence (P04150 1-777) with Q642N
Experimental: as §1

GR [4] = molecular target: T1, GR; experiment: GR transactivation, MMTV-driven luciferase reporter (MMTV-Luc) in AD293 cells; type: cell-based; set-up: expressed in transfected cells; host or cells: AD293; details: transactivation assay, FIG. 3B
Experimental: as §1

leftward shift of the cortisol dose-response curve (GR [4])	Compound	Mean (RLU/Renilla) (GR [1]; 10 nM)	induction activity compared to other candidate compounds and VSGC12 (GR [1]; 10 nM)	RLU (GR [1]; 10 nM)	RLU/Renilla (GR [1]; 10 nM)	Mean (RLU/Renilla) (GR [1]; 1000 nM)	RLU (GR [1]; 1000 nM)	RLU/Renilla (GR [1]; 1000 nM)	activation at 0.01 µM (GR [1]) [%]	activation at 1 µM (GR [1]) [%]	fold induction at 0.01 µM (GR [1])	fold induction at 1 µM (GR [1])	potency compared with VSGC12 and DEX (GR [2])	repression of lung inflammation compared with VSGC12 ([3]; 0.125 mg/kg, FIG. 16B)	increase in potency over fluticasone furoate (FF) ([3]; FIG. 15) [fold]	potency in repressing lung inflammation compared with FF ([3]; FIG. 15, side by side comparison)	% to Dex induction (GR [1]; 10 nM) [%]	% to Dex induction (GR [1]; 1000 nM) [%]	full dose-response curve of Q642N (GR Q642N)
	C[C@@H]1CC2C3C=C(F)C4=Cc5c(cnn5-c5ccccc5)C[C@]4(C)[C@@]3(F)C(O)C[C@]2(C)[C@@]1(OC(=O)c1ccco1)C(=O)O (stereo partly shown) [Compound 1]	0.119	much lower induction activity	21,720 and 17,200 and 24,320	0.116 and 0.093 and 0.149	0.806	186,480 and 180,880 and 219,480	0.642 and 0.818 and 0.959	8.33	56.2	2.42	16.4							
	CCOC(=O)[C@@]1(OC(=O)c2ccco2)[C@H](C)CC2C3C=C(F)C4=Cc5c(cnn5-c5ccccc5)C[C@]4(C)[C@@]3(F)C(O)C[C@@]21C (stereo partly shown) [Compound 2]	1.328		221,760 and 206,200 and 190,520	1.316 and 1.430 and 1.238	1.311	296,680 and 295,960 and 323,600	1.365 and 1.267 and 1.302	92.6	91.5	26.9	26.6							
	CC(C)OC(=O)[C@@]1(OC(=O)c2ccco2)[C@H](C)CC2C3C=C(F)C4=Cc5c(cnn5-c5ccccc5)C[C@]4(C)[C@@]3(F)C(O)C[C@@]21C (stereo partly shown) [Compound 3]	1.462		295,280 and 295,520 and 299,320	1.505 and 1.300 and 1.580	1.219	249,160 and 279,160 and 254,120	1.143 and 1.332 and 1.181	102	85	29.6	24.7							
	C[C@@H]1CC2C3C=C(F)C4=Cc5c(cnn5-c5ccccc5)C[C@]4(C)[C@@]3(F)C(O)C[C@]2(C)[C@@]1(OC(=O)c1ccco1)C(=O)OCF (stereo partly shown) [Compound 4]	1.332		288,320 and 249,160 and 244,360	1.518 and 1.258 and 1.222	1.153	222,960 and 225,280 and 226,280	1.178 and 1.134 and 1.147	92.9	80.4	27	23.4	higher potency	much higher repression activity	8	much more potent			
	C[C@@H]1CC2C3C=C(F)C4=Cc5c(cnn5-c5ccccc5)C[C@]4(C)[C@@]3(F)C(O)C[C@]2(C)[C@@]1(OC(=O)c1ccco1)C(=O)SCF (stereo partly shown) [Compound 5]	1.444		298,760 and 265,160 and 249,760	1.485 and 1.433 and 1.413	1.235	346,400 and 350,240 and 345,760	1.108 and 1.227 and 1.371	101	86.1	29.3	25							
	C[C@@H]1CC2C3C=C(F)C4=Cc5c(cnn5-c5ccccc5)C[C@]4(C)[C@@]3(F)C(O)C[C@]2(C)[C@@]1(OC(=O)c1ccco1)C(=O)OC(C)(C)C (stereo partly shown) [Compound 6]	1.417		353,720 and 347,400 and 378,600	1.291 and 1.356 and 1.605	1.614	385,840 and 290,120 and 330,680	1.694 and 1.490 and 1.659	98.8	113	28.7	32.7							
	C[C@@H]1C[C@H]2[C@@H]3CCC4=CC(=O)C=C[C@]4(C)[C@@]3(F)[C@@H](O)C[C@]2(C)[C@@]1(O)C(=O)CO [DEX, dexamethasone, reference compound]																52.82	100	
	CON(C)C(=O)[C@@]1(OC(=O)c2ccco2)[C@H](C)CC2C3C=C(F)C4=Cc5c(cnn5-c5ccccc5)C[C@]4(C)[C@@]3(F)C(O)C[C@@]21C (stereo partly shown) [VSGC12, reference compound]	1.402		316,240 and 298,600 and 289,480	1.598 and 1.522 and 1.085	1.682	331,400 and 309,120 and 312,400	1.767 and 1.765 and 1.513	97.8	117	28.4	34.1							
	C[C@]12CCC(=O)C=C1CC[C@@H]1[C@@H]2[C@@H](O)C[C@@]2(C)[C@H]1CC[C@]2(O)C(=O)CO [cortisol, Cortisol]																		inactive
about 5 fold	C[C@]12C=CC(=O)C=C1CC[C@@H]1[C@@H]2[C@@H](O)C[C@@]2(C)[C@H]1CC[C@]2(O)C(=O)CO [prednisolone]																		
